In brackets after ≈: the same amount, converted by molar mass. Read-outs that look alike come from different tables or passages of the source.
Experiments:
[1] = test system: murine mastocytoma cell line P815; assay: In vitro photosensitization, kill of P815 cells; assay type: cell-based; conditions: Mus musculus; for EC50: P815, 0.5 h, 300-750 nm light for 30 minutes, read-out: concentration at which fifty percent of the P815 cells were killed; for IC50: P815, read-out: LD50 (the source's name)
Experimental: (§1) Target cells were washed three times in serum-free medium (DME), counted and made up to a concentration of 10^7 cells per ml.
(§2) For the "affinity" assay, in the dark, 100 μl of the target cell suspension and 100 μl of the test or control compound were mixed. "Labeling" was allowed to continue for one hour at 4° C., and labeled cells were washed in the dark three times with 3 ml medium each time and resuspended in fresh medium. The resuspended cells were then subjected to light exposure at 300-750 nanometers for 30 minutes.
(§3) In a "direct" assay the target cells were irradiated immediately upon addition of the test or control compound.
When the murine mastocytoma cell line P815 was used, the results were determined as follows:
The cells were labeled as above using concentration of 10-50 ng/ml of Hp as control and the BPD-DB as the test substance. The resuspended cells were treated with 300-750 nm light for 30 minutes and the viability resulting was estimated by direct counting using eosin-Y exclusion, a standard procedure for differentiating living from dead cells.
In other determinations conducted as above, the cells recovered from light exposure were assayed for viability by incubating them for 18 hours in 10 μCi/ml tritium-labeled thymidine according to the standard procedure whereby thymidine incorporation is equated with viability. The cells were harvested and radioactivity uptake was measured by a scintillation counter.
(§4) The results of each determination on a variety of cells is shown in Table 1 (LD50 in the concentration of compound required to kill 50% of the cell population.)

Normal lymphocytes = assay: In vitro photosensitization, kill of normal lymphocytes; assay type: cell-based; conditions: Lymphocyte, read-out: LD50 (the source's name)
Experimental: as §1, §2, §3
(§5) The effect of irradiation was estimated using methods appropriate to the target cells.
as §4

HL-60 = assay: In vitro photosensitization, kill of HL-60 cells; assay type: cell-based; conditions: Homo sapiens, read-out: LD50 (the source's name)
Experimental: as §1, §2, §3, §5, §4

KG-1 = assay: In vitro photosensitization, kill of KG-1 cells; assay type: cell-based; conditions: Homo sapiens, read-out: LD50 (the source's name)
Experimental: as §1, §2, §3, §5, §4

P815 cells = assay: Selective binding of green porphyrin: kill of labeled P815 cells; assay type: cell-based, murine; conditions: Mus musculus, P815, 0.5 h; labeled in dark 30 minutes, washed, 300-750 nm light 30 minutes; read-out: concentration at which 50% of the P815 cells were destroyed
Experimental: P815 cells were incubated as described in Example 1 using 1-200 ng/ml Hp or Gp. The Gp was BPD-DB of FIG. 2 wherein R^1 and R^2 are carboethoxy. The cells were labeled in the dark for 30 minutes, washed free of unabsorbed porphyrins, resuspended, and then exposed to 300-750 nm light for another 30 minutes. Viability of the cells was established by tritiated thymidine incorporation after labeling with 20 μCi/ml tritiated thymidine and incubating at 37° C. for 18 hours.

K562 = assay: In vitro photosensitization, kill of K562 cells; assay type: cell-based; conditions: Homo sapiens, read-out: LD50 (the source's name)
Experimental: as §1, §2, §3, §5, §4

P815 tumors = assay: In vivo cytotoxicity of immunoconjugates, P815 tumor-bearing DBA/2 mice
Experimental: The in vivo test relies on the indirect effect of a population of T-suppressor cells on tumors, which then serve as means to assess the effectiveness of the irradiation treatment. P815 mastocytoma cells grown in syngeneic DBA/2 mice stimulate T-suppressor cells specific for the tumor. These T-suppressor cells impede the development of specific T-killer cells which would otherwise aid in the regression of the tumor.
Therefore, in this assay, DBA/2 mice are injected in the right flank subcutaneously with 10^4 P815 cells to incorporate the tumor. On day eight, when the tumors are palpable (approx. 25-42 sq mm) the mice are randomly sorted into groups of eight and injected IV with 150 μl PBS containing nothing, Hp or Gp, B16G-Hp or B16G-Gp, B16G plus either drug, B16G alone or C-MAbHp or C-MAb-Gp. The levels of Hp are 50 Mg per animal in all cases and B16G 310 μg in all cases (where appropriate).
The animals are maintained in the dark for two hours and then exposed to strong light at 300-750 nm and 22.5 mW/cm^2. The animals were then treated normally and monitored on a daily basis.

[2] = test system: human erythrocytes (RBCS); assay: In vitro photosensitization: hemolysis of human erythrocytes after irradiation; assay type: cell-based; conditions: Erythrocyte, 0.5 h, light 300-750 nm, 30 minutes, read-out: concentration required to obtain 50% hemolysis
Experimental: as §1, §2
When human erythrocytes (RBCS) were used as target cells, the hemolysis caused by irradiation of control (hematoporphyrin, Hp) labeled and green porphyrin (Gp) labeled cells were estimated visually. The Gp used in this Example was the BPD-DB of FIG. 2 wherein R^1 and R^2 are carboethoxy. […] Thus, a concentration of 250 ng/ml Hp was required under the above conditions to obtain 50% hemolysis while only 10 ng/ml of green porphyrin was required to hemolyze 50% of the RBCs.

M-1 rhabdomycoscercoma = assay: In vivo photosensitization, M-1 rhabdomyosarcoma system in DBA/J2 mice
Experimental: Studies of potential photosensitizers were performed using the M-1 rhabdomycoscercoma system in DBA/J2 mice. The compositions to be tested were diluted to a concentration of […] in PBS from a stock solution in DMSO at 8 mg/ml (except Photofrin® II, which was diluted directly from the clinical vial). […]

[3] = In vivo cytotoxicity of Gp versus Hp conjugates (CAMAL-1 and anti-M1 procedures); conditions: at appropriate wavelengths
Experimental: The efficacy of the conjugates and of the Gp compounds of the invention in vivo is also assessed. For the CAMAL-1 and anti-Ml conjugates, the procedures are as described in the two Mew et al. papers referenced above in Example 4.

Structure (SMILES) | EC50 [1] [µg/mL] | IC50 ([1]; P815, Affinity test) [µg/mL] | IC50 ([1]; P815, Direct test) [µg/mL] | IC50 (Normal lymphocytes; Affinity test) [µg/mL] | IC50 (Normal lymphocytes; Direct test) [µg/mL] | IC50 (HL-60; HL-60, Affinity test) [µg/mL] | IC50 (HL-60; HL-60, Direct test) [µg/mL] | IC50 (KG-1; KG-1, Affinity test) [µg/mL] | IC50 (KG-1; KG-1, Direct test) [µg/mL] | EC50 (P815 cells) [µg/mL] | IC50 (K562; K562, Affinity test) [µg/mL] | IC50 (K562; K562, Direct test) [µg/mL] | EC50 [2] [µg/mL] | further results
CC1=C(CCC(=O)O)c2cc3[nH]c(cc4nc(cc5[nH]c(cc1n2)c(C)c5C(C)O)C(C)=C4C(C)O)c(C)c3CCC(=O)O (stereo not shown) [Hp, hematoporphyrin, reference compound] | 0.58 | 1.3 | 0.58 | 0.1 | 0.031 | 0.145 | 0.064 | 2.35 | 0.96 | 0.2 (≈ 0.334 µM) | 2.5 | 0.77 | 0.25 | % tumor-free after 100 (days) (P815 tumors; Experiment 2): 0%; Mean survival time (P815 tumors; Experiment 2): 21.0 days; No. of cures (P815 tumors; Experiment 2): 0/8; % tumor-free after 100 (days) (P815 tumors; Experiment 3): 0%; Mean survival time (P815 tumors; Experiment 3): 23.4 days; No. of cures (P815 tumors; Experiment 3): 0/7; % tumor-free after 100 (days) (P815 tumors; Experiment 4): 0%; Mean survival time (P815 tumors; Experiment 4): 24.2 days; No. of cures (P815 tumors; Experiment 4): 0/8; % tumor-free after 100 (days) (P815 tumors; Experiment 5): 0%; Mean survival time (P815 tumors; Experiment 5): 27.0 days; No. of cures (P815 tumors; Experiment 5): 0/8
C=Cc1c(C)c2cc3nc(cc4[nH]c(cc5nc(cc1[nH]2)C1(C)C5=CC=C(C(=O)OC)C1C(=O)OC)c(C)c4CCC(=O)O)C(CCC(=O)O)=C3C (stereo not shown) [BPD-DB] | – | – | – | – | – | – | – | – | – | – | – | – | – | Number of Days Tumor Free (PR) (M-1 rhabdomycoscercoma; Table 6, 567 Jo/cm^2, IV 24 h before light): 10.6 days; Cures (tumor regressed and tumor-free for 30 days) (M-1 rhabdomycoscercoma; Table 6, 567 Jo/cm^2, 8 animals per group): 3; Days Tumor-free (M-1 rhabdomycoscercoma; Table 7, light dose 378 To/cm^3): 13.0 days; Number of Cures (M-1 rhabdomycoscercoma; Table 7, light dose 378 To/cm^3, 9-15 animals): 8
C=Cc1c(C)c2cc3nc(cc4[nH]c(cc5nc(cc1[nH]2)C1(C)C5=CC=C(C(=O)OCC)C1C(=O)OCC)c(C)c4CCC(=O)O)C(CCC(=O)O)=C3C (stereo not shown) [Gp] | 0.032 | 0.026 | 0.032 | 0.011 | 0.0042 | 0.0072 | 0.0035 | 0.08 | 0.163 | 0.006 to 0.02 (≈ 0.00819 to 0.0273 µM) | 0.033 | 0.07 | 0.01 | in vivo efficacy of Gp compound alone compared to Hp labeled conjugates [3]: superior results
